Laboratory results reported in patent US20200200735A9, “SYSTEM AND METHOD FOR DETECTING THERAPEUTIC AGENTS TO MONITOR ADHERENCE TO A TREATMENT REGIMEN” (UrSure, Inc., priority 2016, published 2020).
Like-named read-outs stand apart in the source and are kept apart here.

Legend:
HIV = conditions: Anderson 2012; cited from earlier work
[1] = human, in vivo
Procedure: (§1) 3 cohort studies were conducted to assess a system for detection of the active metabolite tenofovir (TFV) of the prodrug nucleotide reverse transcriptase inhibitor (NRTI) tenofovir disoproxil fumarate (TDF). Cohort 1: a cross sectional study of 10 HIV positive subjects with undetectable HIV viral loads on a TDF-based regimen; Cohort 2: a single dose study of Truvada in 10 healthy subjects to evaluate TFV clearance in plasma and urine over 7 days; Cohort 3: a 16 week study of 10 HIV negative subjects receiving daily PrEP to evaluate concordance between plasma and urine over time.
(§2) A semi-quantitative liquid chromatography-tandem mass spectrometry (LC-MS/MS) urine assay was developed for detection of TFV with high sensitivity/specificity. […] To evaluate the qualitative relationship of urine TFV levels to plasma levels, the levels of TFV in the urine and plasma from Cohort 1 was evaluated. […] In addition, the TFV concentration was 3-4 logs higher in urine than plasma (FIG. 2). In cohort 2, TFV was detected for >7 days in urine and 2-4 days in plasma after a single dose of Truvada™ (FIG. 3). […]
(§3) A semi-quantitative liquid chromatography-tandem mass spectrometry (LC-MS/MS) urine assay with high sensitivity and specificity for TFV allowed us to determine TFV concentrations in log categories between <10 ng/L to >10,000 ng/mL. […]

[2] = Cohort 2: single dose of Truvada in healthy subjects, TFV clearance in plasma and urine over 7 days (LC-MS/MS); format: in vivo, human
Procedure: as §1
A semi-quantitative liquid chromatography-tandem mass spectrometry (LC-MS/MS) urine assay was developed for detection of TFV with high sensitivity/specificity. […] To evaluate the qualitative relationship of urine TFV levels to plasma levels, the levels of TFV in the urine and plasma from Cohort 1 was evaluated. […] In addition, the TFV concentration was 3-4 logs higher in urine than plasma (FIG. 2). In cohort 2, TFV was detected for >7 days in urine and 2-4 days in plasma after a single dose of Truvada™ (FIG. 3). […] The urine assay was 2 logs more sensitive than serum over 7 days (FIG. 3).
A semi-quantitative liquid chromatography-tandem mass spectrometry (LC-MS/MS) urine assay with high sensitivity and specificity for TFV allowed us to determine TFV concentrations in log categories between <[…] to >10,000 ng/mL. Following protein precipitation (0.1 mL human plasma or urine or diluted urine sample) using 100% acetonitrile with 0.1% formic acid, containing deuterated internal standard (2H6-tenofovir, 50 ng/mL), the analytes were separated using gradient mobile phase on a reverse phase C18 column and analyzed by MS/MS (AB Sciex API4000). The multiple reaction monitoring of m/z 288.3 to 176.3 for tenofovir and m/z 294.3 to 182.2 for 2H6-tenofovir was used for analysis. […] Flow rate was 0.7 ml/min and total chromatographic run-time was 3.0 minutes/sample.
Standards (10, 100, 1000 and 10,000 ng/mL in human plasma), blanks (double blank and internal standard blank) and unknown plasma and urine samples were thawed to room temperature. One hundred μL of all standards and blanks were put into appropriate wells on a 96 well plate. Diluted unknown urine samples (95 μL blank plasma +5 μL of unknown urine samples, 20-fold dilution) or undiluted plasma samples were mixed with 400 μL of IS solution in a 96 well plate. The plate was vortexed for 30 seconds at high speed and centrifuged for 30 minutes at 4000 rpm. Supernatant was transferred to a fresh 96 well plate and a 10 μL aliquot was injected for LC-MS/MS analysis from autosampler. […] When the concentration of TFV in urine samples exceeded 1,000 ng/mL, samples were diluted 50-fold with blank urine and reanalyzed.

[3] = Cohort 3: 16 week study of HIV negative subjects on daily PrEP, TFV in plasma and urine (LC-MS/MS); format: in vivo, human; conditions: Cohort 3, daily PrEP
Procedure: as §1, §2, §3

HIV-1 = conditions: cited from earlier work
[4] = in vivo; cited from earlier work
[5] = in vivo; cited from earlier work; remark: listed apart in the source

For `CC(Cn1cnc2c(N)ncnc21)OCP(=O)(O)OP(=O)(O)OP(=O)(O)O` (stereo in doubt) [tenofovir-diphosphate], the “intracellular concentration associated with a 90% reduction in HIV acquisition relative to the placebo arm” value (HIV) is given as 16 fmol per million peripheral blood mononuclear cells (PBMCs).

In the case of `C[C@H](Cn1cnc2c(N)ncnc21)OCP(=O)(O)O` [TFV, Tenofovir], the “TFV concentration higher in urine than plasma” value [1] is reported as 3-4 logs, the “time TFV detected in plasma” value ([2]; after a single dose of Truvada) is reported as 2 to 4 days and the “time TFV detected in urine” value ([2]; after a single dose of Truvada) is reported as greater than 7 days. For the same compound, the “urine TFV clearance pattern” value ([2]; after a single dose of Truvada, over 7 days) was “cleared in a log-linear fashion”, the “window of medication usage reflected by TFV detection in urine” value ([2]; after oral TDF/FTC ingestion, preliminary data) was “one to at least seven days” and the “plasma samples with TFV detected” value [3] was 74%. For the same compound, the “urine samples with TFV detected” value [3] was 93%, the “HIV-1 risk reduction corresponding to intracellular tenofovir concentration” value (“HIV-1 risk reduction corresponding” for short) (HIV-1; 2 doses per week) was 76% and the “HIV-1 risk reduction corresponding” value (HIV-1; 4 doses per week) was 96%. For the same compound, the “HIV-1 risk reduction corresponding” value (HIV-1; 7 doses per week) was 99%, the intracellular half-life [4] was 150 h and the plasma half-life [4] was 17 h. The “window of exposure reflected by single plasma concentrations” value [5] was 2 to 3 days.
